Data as given in US20220257775A1 (GLYCOMIMETICS, INC., priority 2019, published 2022).
“Also recorded” adds a separate entry of the source.

Key:
[1] = tested on: TNFα-treated nude mice infused with human sickle RBCs; assay: Flow cytometry analysis of circulating human sickle RBCs in nude mice; assay type: in vivo, Nude (nu−/nu−) mice
Method: Flow cytometry analysis of circulating human sickle RBCs: Following intravital microscopy, blood samples were collected from nude mice treated with vehicle (n=3), 40 μg/kg total Compound 45 (n=3), and 80 μg/kg total Compound 45 (n=2), through cardiac puncture into EDTA tubes to determine the number of circulating human sickle RBCs by flow cytometry.
(§1) Method of Analysis: Human sickle RBC adhesion is presented as FU, blood flow as % normal blood flow, % slow blood flow and % no blood flow (or occluded vessels), and circulating human sickle RBCs as number of circulating sickle RBCs.

[2] = target: T1, recombinant human E-selectin/CD63E Fc Chimera (Homo sapiens, UniProt P16581); assay: E-Selectin Activity - Analysis by SPR; assay type: binding; details: Biacore X100, E-selectin captured on anti-human IgG (Fc) chip
T1 construct: Fc (human IgG Fc fusion partner); purchased R & D systems
Method: Surface Plasmon Resonance (SPR) measurements were performed on a Biacore X100 instrument (GE Healthcare). A CM5 sensor chip (GE Healthcare) was used for the interaction between E-selectin and GMI compound. Anti-human IgG (Fc) antibody (GE Healthcare) was immobilized onto the chip by amine coupling according to the manufacturer's instructions. In brief, after a 7-min injection (flow rate of 5 μl/min) of 1:1 mixture of N-ethyl-N′-(3-dimethylaminopropyl) carbodiimide hydrochloride and N-hydroxysuccinimide, anti-human IgG (Fc) antibody (25 μg/ml in 10 mM sodium acetate buffer, pH 5.0) was injected using a 6-min injection at 5 μl/min. Remaining activated groups were blocked by injecting 1 M ethanolamine/HCl, pH 8.5. The recombinant human E-selectin/CD63E Fc Chimera (50 μg/ml) (R & D systems) was injected into the experimental cell until 6000-7000 RU was captured onto the antibody surface. No recombinant human E-selectin/CD63E was injected into the control cell. Increasing concentrations of GMI compound samples were injected at 30 μl/min into both flow cells and all sensorgrams were recorded against the control. Regeneration of the anti-human IgG (Fc) surface was achieved by injecting 3M magnesium chloride, followed by 50 mM sodium hydroxide. Data were analyzed using Biacore X100 evaluation/BIA evaluation 4.1.1 software (GE Healthcare) and Graphad prism 6 software.

[3] = tested on: TNFα-treated HbSS-Townes mice; assay: Sickle cell vaso-occlusion, intravital microscopy and adhesion in Townes mouse model; assay type: in vivo
Method: In vivo treatment: Townes mice were divided into 3 groups. All mice were first injected I.V. with PE-anti-mouse TER-119 antibody (10 μg/g BW) to label RBCs. Thirty minutes later, animals are injected with 500 ng TNFα I.P. to induce vaso-occlusion. After 90 minutes, and after onset of vaso-occlusion, sickle mice were treated I.V. with the first dose of either Compound 45 at 20 μg/kg or 40 μg/kg, or saline (10 mL/kg) as vehicle. The second dose was given 30 minutes later.
Window chamber surgery: For Townes mice experiments, surgery is carried out under sterile conditions with aseptic technique. Since these mice do have hair, it is necessary to shave and use hair removal cream on the back of the anesthetized mouse prior to cleaning the back of the animals, and performing surgery. Experimental studies are performed immediately after surgery, because in our experience, window chambers are not usable a few days after surgery. The skin is very dry, and blood cells cannot be visualized under the microscopy. In addition, sickle mice have been reported to have a mild inflammatory response to the dorsal skin-fold window chamber implantation, evidenced by elevated levels of serum amyloid P component (SAP) 3 days after surgery.
Intravital microscopy: Anesthetized animals with window chambers were placed on the stage of an Axoplan microscope (Carl Zeiss, Thornwood, N.Y.) and temperature maintained at 37° C. using a thermostatically controlled heating pad. […] Microcirculatory events and cell adhesion were simultaneously recorded using a computer connected to a digital video camera C2400 (Hamamatsu Photonics K.K., Japan). Visible venules were examined for each set of conditions. Arterioles were distinguished from venules based on: 1) observation of divergent flow as opposed to convergent flow; 2) birefringent appearance of vessel walls using transillumination, which is characteristic of arteriolar vascular smooth muscle; and 3) relatively straight vessel trajectory without evidence of tortuosity.
Data Analysis and Statistics were conducted as described above for the nude mouse model.

[4] = tested on: TNFα-treated nude mice infused with human sickle RBCs; assay: Sickle cell vaso-occlusion, intravital microscopy and adhesion in nude mouse model; assay type: in vivo, Nude (nu−/nu−) mice
Method: In vivo treatment: Mice were divided into 3 groups. All mice were first injected I.P. with 500 ng TNFα to induce inflammation, activate the endothelium, and allow adhesion of murine leukocytes. After 2 hours, and once the endothelium is activated and murine leukocytes have already adhered, mice were infused with 200 μl of DIL (rhodamine)-labeled human sickle RBCs at 50% hematocrit (less than 10% murine blood volume assuming that blood volume for a 20 g weight mouse is 1.5 ml). We injected I.V. the three animal groups with the first dose of either Compound 45 at 20 μg/kg or 40 μg/kg, or saline (10 mL/kg) as vehicle immediately after infusion of human RBCs. The second dose was given 30 minutes later.
Window chamber surgery: Surgery was performed before TNFα administration. General anesthesia was achieved by exposing nude mice to isoflurane. A double-sided titanium frame window chamber was surgically implanted into the dorsal skin fold under sterile conditions using a laminar flow hood. Surgery involved carefully removing the epidermal and dermal layers of one side of a dorsal skin fold, exposing the blood vessels of the subcutaneous tissue adjacent to the striated muscles of the opposing skin fold, and then securing the two sides of the chamber to the skin using stainless steel screws and sutures. A glass window was placed in the chamber to cover the exposed tissue and secured with a snap ring.
Animal treatments, and fluorescence intravital microscopy: Anesthetized nude mice were first injected with 500 ng TNFα. After two hours, mice were infused with 200 μl DIL (rhodamine)-labeled human sickle RBCs at 50% hematocrit DIL through the dorsal tail vein.
Immediately after human RBC injection, nude mice were then injected I.V. with the first dose of either Compound 45 at 20 μg/kg (n=4) or 40 μg/kg (n=3), or saline (10 mL/kg) as vehicle (n=5). Videos were recorded for 30 minutes at different locations within the dorsal skin-fold window chamber to accurately determine the effects of Compound 45 on human sickle cell adhesion to the vascular endothelium and adherent murine leukocytes, and vaso-occlusion in the nude mice. Thirty minutes later, the second dose of either Compound 45 at 20 μg/kg (n=4) or 40 μg/kg (n=3), or vehicle (n=5) was injected I.V., and intravital microscopy measurements of blood cell flow dynamics in post-capillary venules and arterioles were resumed for another 30 minutes on anesthetized nude mice. Videos were again recorded at different locations within the dorsal skin-fold window chamber to accurately determine the effects of the second dose of Compound 45 on blood cell adhesion to the vascular endothelium, and vaso-occlusion. Videos were produced using 10× and 20× magnifications.
Cell adhesion was quantified on still images by measuring the fluorescence intensity [fluorescence unit (FU)] of adherent fluorescence-labeled human sickle cells using ImageJ software downloaded from the NIH website. Blood flow was also determined by counting the number of vessels with normal blood flow, slow blood flow, and no blood flow by frame-by-frame analysis of video replay. The values were averaged among groups of animals (n=5 for vehicle, n=4 for 40 μg/kg total Compound 45, and n=3 for 80 μg/kg total Compound 45) for non-blinded statistical analysis.
as §1

[5] = after second dose of 20 μg/kg I.V.
[6] = after the first dose of 40 μg/kg I.V.
[7] = after two doses of 40 μg/kg I.V.

T1 sequence (P16581 with tags, fused parts or gaps limits assumed): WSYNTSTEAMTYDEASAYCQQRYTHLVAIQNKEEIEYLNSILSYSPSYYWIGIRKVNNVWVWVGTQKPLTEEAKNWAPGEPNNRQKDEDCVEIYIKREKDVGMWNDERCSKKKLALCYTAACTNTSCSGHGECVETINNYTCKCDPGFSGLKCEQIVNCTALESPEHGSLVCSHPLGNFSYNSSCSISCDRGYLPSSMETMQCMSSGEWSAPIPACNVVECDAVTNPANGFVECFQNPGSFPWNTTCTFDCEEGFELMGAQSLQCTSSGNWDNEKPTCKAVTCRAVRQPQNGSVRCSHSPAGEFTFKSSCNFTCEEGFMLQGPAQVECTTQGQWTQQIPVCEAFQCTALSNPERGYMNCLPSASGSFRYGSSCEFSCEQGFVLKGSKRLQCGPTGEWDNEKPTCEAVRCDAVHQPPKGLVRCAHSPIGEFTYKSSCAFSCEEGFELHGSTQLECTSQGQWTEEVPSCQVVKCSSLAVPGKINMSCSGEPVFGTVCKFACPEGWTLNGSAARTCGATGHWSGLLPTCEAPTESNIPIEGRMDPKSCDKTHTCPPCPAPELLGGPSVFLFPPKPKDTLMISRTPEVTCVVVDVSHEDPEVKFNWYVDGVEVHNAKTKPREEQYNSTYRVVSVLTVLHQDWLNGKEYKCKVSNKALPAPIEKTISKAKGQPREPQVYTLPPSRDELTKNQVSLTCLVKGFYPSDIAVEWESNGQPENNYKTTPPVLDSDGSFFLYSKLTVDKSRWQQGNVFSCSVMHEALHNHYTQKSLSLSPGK

- Kd [2]: 2.1 nM
SMILES: CC[C@H]1C[C@@H](C(=O)NCCNC(=O)NCCNC(=O)[C@@H]2C[C@H](CC)[C@@H](O[C@@H]3O[C@@H](C)[C@@H](O)[C@@H](O)[C@@H]3O)[C@H](O[C@@H]3O[C@H](CO)[C@H](O)[C@H](O[C@@H](CC4CCCCC4)C(=O)N4CCC4)[C@H]3NC(C)=O)C2)C[C@@H](O[C@@H]2O[C@H](CO)[C@H](O)[C@H](O[C@@H](CC3CCCCC3)C(=O)N3CCC3)[C@H]2NC(C)=O)[C@@H]1O[C@@H]1O[C@@H](C)[C@@H](O)[C@@H](O)[C@@H]1O [Compound 45]
- number of circulating human SSRBCs compared to vehicle ([1]; two doses of 20 μg/kg I.V. at 30 min interval): increased significantly
- number of circulating human SSRBCs compared to vehicle ([1]; two doses of 40 μg/kg I.V. at 30 min interval): increased significantly
- SSRBC adhesion after the inflammatory trigger of vaso-occlusion ([3]; dose not given): reduces SSRBC adhesion
- blood flow in inflamed vessels ([3]; dose not given): improves blood flow
- adhesion of the sickle cells ([3]; two 20 μg/kg doses I.V.): significantly diminished
- reduction of the percentage of the total occluded vessel segments ([3]; two 20 μg/kg doses or two 40 μg/kg doses I.V.): 80-90%
- adhesion of the sickle cells ([3]; two 40 μg/kg doses I.V. (80 μg/kg total)): significantly diminished; also recorded: effective in reducing sickle RBCs adhesion in venules and vaso-occlusion and restoring blood flow
- percentage of the total occluded vessel segments [4, 5]: 2%
- total venules with slow blood flow [4, 5]: 16%
- human SSRBC adhesion compared to vehicle ([4]; after second dose of 20 μg/kg I.V. (40 μg/kg total), 30 min interval): significantly diminished
- percentage of obstructed total vessels [4, 6]: 2%
- vessels with slow blood flow [4, 6]: 12%
- percentage of obstructed total vessels [4, 7]: 4%
- vessels with slow blood flow [4, 7]: 8%
- blood flow in inflamed vessels ([4]; dose not given): improves blood flow
- human SSRBC adhesion after the inflammatory trigger of vaso-occlusion ([4]; dose not given): reduces human SSRBC adhesion
- human SSRBC adhesion compared to vehicle ([4]; one dose of 20 μg/kg I.V.): failed to reduce SSRBC adhesion
- human SSRBC adhesion ([4]; one dose of 40 μg/kg I.V.): marked anti-SSRBC adhesive activity
- human SSRBC adhesion ([4]; two doses of 40 μg/kg I.V. (80 μg/kg total), 30 min interval): marked anti-SSRBC adhesive activity; also recorded: effective in reducing cell adhesion in venules and vaso-occlusion and restoring blood flow
